Test [1] has as its system HaCaT cells. The test is described as follows: Proliferation assay (HaCaT cells, ATP-lite bioluminescent readout of intracellular ATP). The settings on record: Homo sapiens, 144 h, absolute IC50 of inhibition of proliferation, 10% FBS, 6 days incubation, mean of 3 experiments. It counts as cell-based. As for the experimental part: Human adult low calcium high temperature (HaCaT) cells are spontaneously transformed human keratinocytes that have the characteristics of basal epidermal keratinocytes (Boukamp et at. J Cell Biol 106:761-771, 1988) This line can be used as in vitro model for highly proliferative epidermis (Ockenfels et at., Arch Dermatol Res 287:301-309, 1995)
HaCaT cells exponentially growing were plated in clear bottom, white walled, 96-well plates at a density of 5000 cells/well in 100 µL Dulbecco's modified Eagle's medium (DMEM) containing 1% fetal bovine serum (FBS), and incubated overnight at 37 °C, 5% CO2. Next day, media in each well was replaced with 50 µL growth medium containing 10% FBS. 50 µL of compounds at two-fold the desired concentration in growth medium containing 2% dimethyl sulfoxide (DMSO) were added to the wells. Six wells were replaced with fresh 100 µL of medium containing 1% FBS and 1% DMSO and were used as a control of no proliferation. Six other wells were replaced with fresh 100 µL of medium containing 10% FBS and 1% DMSO and were used as a control of top proliferation. Each compound concentration was tested in triplicate and ranged from 100 µM to 0.4 µM in half-log serial dilutions. Plates were incubated at 37°C 5% CO2 for 6 consecutive days. […] Results were expressed as a % of inhibition of proliferation in relation to the top and bottom proliferation wells. […]

Test [2] concerns premalignant and malignant human cutaneous keratinocytes. The settings on record: cytostasis was followed by apoptosis; cited from earlier work.

SMILES strings stand for the structures.

As to `COc1cccc(-c2cc(F)c(Nc3ncccc3C(=O)O)c(F)c2)c1` [2-(3,5-difluoro-3'-methoxybiphenyl-4-ylamino)nicotinic acid], the IC50 in test [1] worked out at 580 nM.
In the case of `O=C(O)c1cc(C2CC2)ccc1Nc1cnc(-c2c(F)cccc2F)nc1` [5-cyclopropyl-2-(2-(2,6-difluorophenyl)pyrimidin-5-ylamino)benzoic acid], in test [1], the midpoint of inhibition, the IC50, lay at 260 nM.
On to `CC(O)=C(C#N)C(=O)Nc1ccc(C(F)(F)F)cc1` [Teriflunomide, 2-Butenamide, 2-cyano-3-hydroxy-N-[4-(trifluoromethyl)phenyl]-], for which, in test [2], the “effect on premalignant and malignant human cutaneous keratinocytes” value is “dose- and time-dependent cytostasis”.

Broadly, the IC50 is the midpoint of a concentration-inhibition curve. Lower therefore signals higher potency.
